Assay results as given in patent US9816994B2, “Method for treating a blood component containing sample” (ARKRAY, Inc., priority 2012, dated 2017).

Legend:
[1] = tested on: SNU-1 gastric cancer cells; assay: Assessment of damage to cancer cells (trypan blue survival rate), SNU-1; format: cell-based, human; conditions: 10 minutes after a contact with surfactant, 2.5 w/v %
Description: Cells of SNU-1, MCF-7, SW620, PC3, and NCI-358 derived from gastric cancer, breast cancer, large intestinal cancer, prostate cancer, and lung cancer were prepared to be 2×10^6 Cells/ml and used. The cancer cells were prepared in the following manner. 50 μL of a cancer cell suspension in the serum-including medium and 50 μL of the aqueous solution of the surfactant were added into the 1.5 ml microcentrifuge tube, stirred with pipetting so as to make the solution homogeneous. Later, the solution was allowed to stand at an ambient temperature of 23° C. for about 10 minutes so as to proceed the reaction. […] Provided that the number of cells in a reaction liquid to which distilled water had been added in place of the reagent being 100%, the survival rate was calculated from the number of cells survived 10 minutes after (Example 1) and 30 minutes after (Example 2) from the reaction with the aqueous solution of the surfactant. […]
A mixture of the surfactant No. 1 and either the surfactant No. 2 or No. 3 was prepared at a mixing ratio of 10:0 to 0:10 (weight ratio: the total concentration of the surfactants was 2.5 w/v %). […] The survival rate was calculated from the number of cells survived after the reaction with the mixture of surfactants, provided that the number of cells in a reaction liquid to which distilled water had been added in place of the reagent being 100%. […]

[2] = tested on: SW620 large intestinal cancer cells; assay: Assessment of damage to cancer cells (trypan blue survival rate), SW620; format: cell-based, human; conditions: 10 minutes after a contact with surfactant, 2.5 w/v %
Description: (§1) Cells of SNU-1, MCF-7, SW620, PC3, and NCI-358 derived from gastric cancer, breast cancer, large intestinal cancer, prostate cancer, and lung cancer were prepared to be 2×10^6 Cells/ml and used. The cancer cells were prepared in the following manner. 50 μL of a cancer cell suspension in the serum-including medium and 50 μL of the aqueous solution of the surfactant were added into the 1.5 ml microcentrifuge tube, stirred with pipetting so as to make the solution homogeneous. Later, the solution was allowed to stand at an ambient temperature of 23° C. for about 10 minutes so as to proceed the reaction. Then, the reaction liquid in the microcentrifuge tube was stirred with pipetting so as to disperse the cells, and subsequently, 50 μL of the liquid was dispensed into another microcentrifuge tube and 50 μL of 0.4% trypan blue stain solution (Invitrogen) was mixed therein. This was injected into a counting chamber so as to count living cells that had not been stained with the trypan blue. Provided that the number of cells in a reaction liquid to which distilled water had been added in place of the reagent being 100%, the survival rate was calculated from the number of cells survived 10 minutes after (Example 1) and 30 minutes after (Example 2) from the reaction with the aqueous solution of the surfactant. […]

[3] = tested on: PC3 prostate cancer cells; assay: Assessment of damage to cancer cells (trypan blue survival rate), PC3; format: cell-based, human; conditions: 10 minutes after a contact with surfactant, 2.5 w/v %
Description: as §1

[4] = tested on: MCF-7 breast cancer cells; assay: Assessment of damage to cancer cells (trypan blue survival rate), MCF-7; format: cell-based, human; conditions: 10 minutes after a contact with surfactant, 2.5 w/v %
Description: as §1

leukocytes = assay: Assessment of damage to leukocytes (trypan blue survival rate); format: cell-based
Description: Leukocytes were separated from 10 ml of fresh blood in accordance with HetaSep protocol (manufactured by STEMCELL (trade name) Technologies), which was suspended in 1 ml of PBS(−) and collected in a 1.5 ml disposable microtube (a microcentrifuge tube with trade name of DSP-MC-15A manufactured by Nichiryo Co., Ltd.). Since a small amount of erythrocytes were still included in the separated leukocytes, the erythrocytes were eliminated by using ammonium chloride (supplied by STEMCELL (trade name) Technologies) in accordance with the attached document, and the leukocytes were collected through centrifugation, washed in PBS(−), and then suspended in 1 ml of a serum-including medium. 50 μL of leukocyte suspension in the serum-including medium and 50 μL of the aqueous solution of the surfactant were mixed in the 1.5 ml microcentrifuge tube, and the mixed solution was stirred with pipetting about five times so that the solution would be homogeneous. […] Provided that the number of cells in a reaction liquid to which distilled water had been added in place of the reagent being 100%, the survival rate was calculated from the number of cells survived 10 minutes after (Example 1) and 30 minutes after (Example 2) from the reaction with the aqueous solution of surfactant.

[5] = tested on: NCI-H358 lung cancer cells; assay: Assessment of damage to cancer cells (trypan blue survival rate), NCI-H358; format: cell-based, human; conditions: 10 minutes after a contact with surfactant, 2.5 w/v %
Description: as §1

erythrocytes = assay: Measurement of lysis time of erythrocytes (absorbance at 650 nm, micro-plate reader); format: cell-based, human
Description: As a sample containing erythrocytes, blood that had been collected from a vein of a healthy person by use of a vacuum blood-collecting vessel (EDTA including 2K) was used. 30 μL of the sample containing the blood was dispensed onto a 96-well microplate, in which 30 μL of the aqueous solution of surfactant was mixed and stirred five times with pipetting, thereby allowing the reaction solution to react homogeneously. The absorbance was measured every one minute with a micro-plate reader. The moment at which the absorbance became 0.5 or lower at a wavelength of 650 nm was determined as the lysis of the blood cells. The results are shown in Table 3 below (Examples 1 and 2). In Examples 1 and 2, the absorbance reached 0.5 within the time period from 30 minutes to 60 minutes after starting the measurement. On the other hand, in Comparative Example 9 where the aqueous solution of the surfactant was replaced by distilled water, the absorbance did never reach 0.5 even 60 minutes after from the start of the measurement. The micro-plate reader used herein was Thermo Labsystems Multiskan Ascent 35 manufactured by Thermo Labsystems.

## polyoxyethylene octyl dodecylether (EO=25) [Surfactant No. 1]
[1]
  Cancer cell survival rate (%) SNU-1 Gastric cancer: 86.1%
[2]
  Cancer cell survival rate (%) SW620 Large intestinal cancer: 81%
[3]
  Cancer cell survival rate (%) PC3-9 Prostate cancer: 101.8%
[4]
  Cancer cell survival rate (%) MCF-7 Breast cancer: 112.3%
leukocytes; 2.5 w/v % aqueous solution, 10 and 30 minutes
  selectivity of lowering survival rate, leukocytes against cancer cells: lower selectively the survival rate of the leukocytes rather than cancer cells
leukocytes; 10 minutes after contact, 2.5 w/v %, 23° C., distilled water = 100%
  Leukocyte survival rate (%): 71.8%
[5]
  Cancer cell survival rate (%) MCI-358 Lung cancer: 89.9%
erythrocytes; surfactant (2.5 w/v %), mixing ratio 2:8 (No. 1 is 80%)
  Lysis time to reach absorbance of 0.5: 30 to 60 min
erythrocytes; surfactant used alone, preparation concentration 2.5 w/v %
  Lysis time to reach absorbance of 0.5: 30 to 60 min
